How the values were obtained:
zebrafish = experiment: Toxicity to zebrafish, semi-static method, 96 hours
Protocol: Test agents: avermectin, milbemycin, ivermectin, tenvermectin A and tenvermectin B were all from Zhejiang Hisun Pharmaceutical Co., Ltd. The samples were formulated into 50 mg/ml mother liquors with DMF.
Test fish and water: zebrafish (Brachydanio rerio) was purchased from Zhejiang Academy of Agricultural Sciences, with the same size, average body length of 2-3 cm and average body weight of 0.3 g. The zebrafish was domesticated for 7 days indoors before the test. […] Feeding was stopped 1 day before the test and the fish were not fed during the test. The test water was tap water with residual chlorine removed by exposure to the sun for more than 24 hours, and the pH thereof was 6.8.
Test methods: semi-static method. Three level differences were provided for each sample: 0.5 ppm, 1.0 ppm and 1.5 ppm, and three parallel groups were provided for each level difference, 10 zebrafish were raised for each group, and blank controls (one group without agents and one group with only solvent) were provided. The corresponding volume of mother liquor was taken according to the concentration as required for each sample, and the volume of each sample was adjusted to 150 μl with DMF, and then each sample was added to the test group (containing 1.6 L of water). The room temperature was controlled at 22±2° C. for 96 hours, and the water was changed every 24 hours and the samples were re-added. The fish mortality rate was recorded for the first 8 hours and at 24, 48, 72 and 96 hours, and the dead fish were removed in time.

swine Haematopinus = experiment: Killing effect on swine Haematopinus on the body surface; format: in vivo; conditions: pigs, 1% injection 0.2 mg/kg bw s.c., until the 7th day and in the following 3 weeks
From the text: (§1) Test agents: 1% ivermectin injection, 1% tenvermectin A injection, and 1% tenvermectin B injection as obtained in Example 1.
(§2) Test animals and grouping: pigs cultured in the same farm were selected, and 40 pigs naturally infected with nematodes in the digestive tract were selected for testing through fecal examination. The average weight of the test pigs was 30-50 kg. Forty pigs were randomly divided into 4 groups, 10 for each group. The first group was the ivermectin control group, the second group was the tenvermectin A group, and the third group was the tenvermectin B group. All the medicated groups were injected subcutaneously in the neck according to 0.2 mg/kg·bw. The forth group was a blank group and was not administered.
(§3) 1) The feces of the pigs in each group were collected and examined one by one a day before administration, and worm eggs were counted by the McMaster's method. The number of eggs per gram of feces (EPG) was counted and the condition of Haematopinus on the body surface was observed.
(§4) 2) 1, 2, 3 and 4 weeks after administration, the feces of the pigs in each group were examined by the McMaster's method, and the EPG was counted and the changes of Haematopinus on the body surface were observed.
4) The killing effects of swine Haematopinus of the agents were assessed according to the survival of swine Haematopinus on the 7th day after administration.

Sarcoptes mites = experiment: Treatment of Sarcoptes mites of sheep (skin scrapings, live mites); format: in vivo; conditions: 1% injection 0.2 mg/kg bw s.c.; for Negative conversion number: sheep (10 per group); for Negative conversion rate (%): sheep
From the text: Test agents: 1% ivermectin injection, 1% tenvermectin A injection and 1% tenvermectin B injection as obtained in Example 1.
Test animals and grouping: sheep grazed under the same conditions were selected. Upon parasitological examination, 40 sheep which had been infected with sheep Sarcoptes mites were selected. The 40 sheep were randomly divided into 4 groups, 10 heads for each group. The first group was the ivermectin control group, the second group was the tenvermectin A group, and the third group was the tenvermectin B group. All the medicated groups were injected subcutaneously in the neck according to 0.2 mg/kg·bw. The fourth group was a blank group and was not medicated.
Test methods: the changes of clinical symptoms were observed. The skin of sheep was scratched using a surgical blade with glycerin at the junction of the affected part and the healthy skin of the diseased sheep until the skin slightly bled. The skin scraps were taken then were placed in a dish and brought back to the laboratory. Then the skin scraps were placed on a slide, a drop of aqueous solution of 50% glycerol was added, and a cover slip was covered, and then the skin scraps were checked under a low magnification microscope. It was confirmed to be positive if live Sarcoptes mites were observed. Samples were taken before administration and at 1, 2, 3 and 4 weeks after administration to be examined. The samples were examined under a microscope, based on whether live mites were observed, the samples can be determined to be positive as long as one live mite was observed. Changes of clinical symptoms were observed as references.

[1] = system: swine nematode (nematodes in the digestive tract); experiment: Repelling swine nematode in naturally infected pigs (fecal egg count, McMaster's method); format: in vivo; conditions: 1% injection 0.2 mg/kg bw s.c.
From the text: as §1, §2, §3, §4
3) The negative conversion rates and egg reduction rates of the test pigs were calculated by a conventional method to assess the efficacy of repelling swine nematode.

[2] = system: allogynogenetic crucian carp; experiment: Toxicity to allogynogenetic crucian carp, semi-static method, 96 hours; format: in vivo; conditions: allogynogenetic crucian carp
From the text: Test fish and water: allogynogenetic crucian carp was purchased from Taowang Farm in Jiaojiang District, Taizhou City, with a body length of (9.60±0.52) cm and a body weight of (28.22±3.44) g. The healthy and vigorous fish with the same size were selected and temporarily raised in an indoor aquarium. They were domesticated for 7 days indoors before the test. The natural mortality rate was zero.
99.4% Tenvermectin A (the mass content of tenvermectin B was 0.02%) (Zhejiang Hisun Pharmaceutical Co., Ltd.);
Tenvermectin (the mass ratio of tenvermectin A/tenvermectin B was 95/5) (Zhejiang Hisun Pharmaceutical Co., Ltd.);
Tenvermectin (the mass ratio of tenvermectin A/tenvermectin B was 90/10) (Zhejiang Hisun Pharmaceutical Co., Ltd.);
Tenvermectin (the mass ratio of tenvermectin A/tenvermectin B was 85/15) (Zhejiang Hisun Pharmaceutical Co., Ltd.);
99.1% Tenvermectin B (the mass content of tenvermectin A was 0.51%) (Zhejiang Hisun Pharmaceutical Co., Ltd.);
92% Avermectin (Zhejiang Qianjiang Biochemical Co., Ltd.);
96% Ivermectin (Zhejiang Hisun Pharmaceutical Co., Ltd.);
90% Methylamino avermectin benzoate (Emamectin benzoate) (Zhejiang Shenghua Biok Biotechnology Co., Ltd.).
Method: semi-static method. […]

SMILES: COC1CC(OC2C(C)OC(OC3C(C)=CCC4CC(CC5(CCC(C)C(C)O5)O4)OC(=O)C4C=C(C)C(O)C5OCC(=CC=CC3C)C45O)CC2OC)OC(C)C1O (stereo not drawn) [Tenvermectin A, tenvermectin A]
- Survival condition (survival rates/%) (zebrafish; 0.5 ppm, 8 h): 100%
- Survival condition (survival rates/%) (zebrafish; 0.5 ppm, 24 h): 100%
- Survival condition (survival rates/%) (zebrafish; 0.5 ppm, 48 h): 100%
- Survival condition (survival rates/%) (zebrafish; 0.5 ppm, 72 h): 100%
- Survival condition (survival rates/%) (zebrafish; 0.5 ppm, 96 h): 100%
- Survival condition (survival rates/%) (zebrafish; 1.0 ppm, 8 h): 100%
- Survival condition (survival rates/%) (zebrafish; 1.0 ppm, 24 h): 100%
- Survival condition (survival rates/%) (zebrafish; 1.0 ppm, 48 h): 100%
- Survival condition (survival rates/%) (zebrafish; 1.0 ppm, 72 h): 100%
- Survival condition (survival rates/%) (zebrafish; 1.0 ppm, 96 h): 100%
- Survival condition (survival rates/%) (zebrafish; 1.0 ppm, 96 h, listed as tenvermectin A): greater than 50%
- Survival condition (survival rates/%) (zebrafish; 1.5 ppm, 8 h): 100%
- Survival condition (survival rates/%) (zebrafish; 1.5 ppm, 24 h): 100%
- Survival condition (survival rates/%) (zebrafish; 1.5 ppm, 48 h): 100%
- Survival condition (survival rates/%) (zebrafish; 1.5 ppm, 72 h): 100%
- Survival condition (survival rates/%) (zebrafish; 1.5 ppm, 96 h): 100%
- 96-hour LC50 on zebrafish (zebrafish; 96 hours, semi-static): > 1 ppm
- active Haematopinus observed on the body surface (swine Haematopinus): no active Haematopinus was found
- Negative conversion number (Sarcoptes mites; 1st week): 8
- Negative conversion number (Sarcoptes mites; 2nd week): 9
- Negative conversion number (Sarcoptes mites; 3rd week): 10
- Negative conversion number (Sarcoptes mites; 4th week): 10
- Negative conversion rate (%) (Sarcoptes mites; 1st week): 80%
- Negative conversion rate (%) (Sarcoptes mites; 2nd week): 90%
- Negative conversion rate (%) (Sarcoptes mites; 3rd week): 100%
- Negative conversion rate (%) (Sarcoptes mites; 4th week): 100%
- Egg reduction rate (%) ([1]; 1st week after administration): 79.6%
- Negative conversion rate (%) ([1]; 1st week after administration): 70%
- Egg reduction rate (%) ([1]; 2nd week after administration): 89.5%
- Negative conversion rate (%) ([1]; 2nd week after administration): 80%
- Egg reduction rate (%) ([1]; 3rd week after administration): 98.6%
- Negative conversion rate (%) ([1]; 3rd week after administration): 90%
- Egg reduction rate (%) ([1]; 4th week after administration): 78.8%
- Negative conversion rate (%) ([1]; 4th week after administration): 70%
- Survival condition (survival rates/%) ([2]; 0.5 ppm, 8 h): 100%
- Survival condition (survival rates/%) ([2]; 0.5 ppm, 24 h): 100%
- Survival condition (survival rates/%) ([2]; 0.5 ppm, 48 h): 100%
- Survival condition (survival rates/%) ([2]; 0.5 ppm, 72 h): 100%
- Survival condition (survival rates/%) ([2]; 0.5 ppm, 96 h): 100%
- Survival condition (survival rates/%) ([2]; 1.0 ppm, 8 h): 100%
- Survival condition (survival rates/%) ([2]; 1.0 ppm, 24 h): 100%
- Survival condition (survival rates/%) ([2]; 1.0 ppm, 48 h): 100%
- Survival condition (survival rates/%) ([2]; 1.0 ppm, 72 h): 100%
- Survival condition (survival rates/%) ([2]; 1.0 ppm, 96 h): 100%
- Survival condition (survival rates/%) ([2]; 2.0 ppm, 8 h): 100%
- Survival condition (survival rates/%) ([2]; 2.0 ppm, 24 h): 100%
- Survival condition (survival rates/%) ([2]; 2.0 ppm, 48 h): 100%
- Survival condition (survival rates/%) ([2]; 2.0 ppm, 72 h): 100%
- Survival condition (survival rates/%) ([2]; 2.0 ppm, 96 h): 100%
- toxicity grade according to LC50 ([2]; 96-hour LC50): low toxic

SMILES: CC[C@H]1O[C@]2(CC[C@@H]1C)C[C@@H]1C[C@@H](C/C=C(\C)[C@@H](O[C@H]3C[C@H](OC)[C@@H](O[C@H]4C[C@H](OC)[C@@H](O)[C@H](C)O4)[C@H](C)O3)[C@@H](C)/C=C/C=C3\CO[C@@H]4[C@H](O)C(C)=C[C@@H](C(=O)O1)[C@]34O)O2 [Tenvermectin B, tenvermectin B]
- Survival condition (survival rates/%) (zebrafish; 0.5 ppm, 8 h): 100%
- Survival condition (survival rates/%) (zebrafish; 0.5 ppm, 24 h): 70%
- Survival condition (survival rates/%) (zebrafish; 0.5 ppm, 48 h): 50%
- Survival condition (survival rates/%) (zebrafish; 0.5 ppm, 72 h): 0%
- Survival condition (survival rates/%) (zebrafish; 1.0 ppm, 8 h): 53%
- Survival condition (survival rates/%) (zebrafish; 1.0 ppm, 24 h): 0%
- Survival condition (survival rates/%) (zebrafish; 1.5 ppm, 8 h): 10%
- Survival condition (survival rates/%) (zebrafish; 1.5 ppm, 24 h): 0%
- toxicity to zebrafish, in words (zebrafish; in vivo): did not reach the level of middle toxic
- active Haematopinus observed on the body surface (swine Haematopinus): no active Haematopinus was found
- Negative conversion number (Sarcoptes mites; 1st week): 9
- Negative conversion number (Sarcoptes mites; 2nd week): 10
- Negative conversion number (Sarcoptes mites; 3rd week): 10
- Negative conversion number (Sarcoptes mites; 4th week): 10
- Negative conversion rate (%) (Sarcoptes mites; 1st week): 90%
- Negative conversion rate (%) (Sarcoptes mites; 2nd week): 100%
- Negative conversion rate (%) (Sarcoptes mites; 3rd week): 100%
- Negative conversion rate (%) (Sarcoptes mites; 4th week): 100%
- Egg reduction rate (%) ([1]; 1st week after administration): 85.3%
- Negative conversion rate (%) ([1]; 1st week after administration): 80%
- Egg reduction rate (%) ([1]; 2nd week after administration): 100%
- Negative conversion rate (%) ([1]; 2nd week after administration): 100%
- Egg reduction rate (%) ([1]; 3rd week after administration): 100%
- Negative conversion rate (%) ([1]; 3rd week after administration): 100%
- Egg reduction rate (%) ([1]; 4th week after administration): 95.8%
- Negative conversion rate (%) ([1]; 4th week after administration): 90%
- Survival condition (survival rates/%) ([2]; 0.5 ppm, 8 h): 100%
- Survival condition (survival rates/%) ([2]; 0.5 ppm, 24 h): 80%
- Survival condition (survival rates/%) ([2]; 0.5 ppm, 48 h): 33%
- Survival condition (survival rates/%) ([2]; 0.5 ppm, 72 h): 0%
- Survival condition (survival rates/%) ([2]; 1.0 ppm, 8 h): 75%
- Survival condition (survival rates/%) ([2]; 1.0 ppm, 24 h): 3%
- Survival condition (survival rates/%) ([2]; 2.0 ppm, 8 h): 20%
- Survival condition (survival rates/%) ([2]; 2.0 ppm, 24 h): 0%
